According to patent EP4050002A1, “ANTI-PROLIFERATIVE AGENTS” (First Health Pharmaceuticals B.V., priority 2021, dated 2022):

Experiments:
[1] = test system: H9; test: Cytotoxicity, cell viability; conditions: Homo sapiens; H9, 72 hours of incubation, ATP-based method
Method: The anti-tumor activity of the compounds of the present invention was evaluated as the effect on the proliferation and survival of tumor cells by counting the number of living cells in presence or absence of the compounds ("cell count method"), and as the effect on the viability and metabolic activity of the cells, by using particular substrates that are converted by cellular enzymes into coloured or luminescent products, proportionally with metabolic activity and state of the cell, such as the MTS tetrazolium compound ("MTS method") or luciferin ("ATP-based method") respectively.
Cells were seeded at 3 to 5 x 10^4 cells/well density depending on cell lines and maintained at 37°C in 5% CO2. After 24 hours cells were treated with ascending concentrations of the investigational compounds and the reference (5-fluoro-Uracyl) in a range from 0 to 100 µM. […] After 72 h of incubation with compounds, the cells were detached with trypsin and re-suspended in 1 ml of complete medium; the cell number was evaluated using a Z2 Coulter Counter ("cell count method") (Attallah and Johnson, A simple highly sensitive methods for the determination of cell viability using an electronic particle analyzer, Coulter counter J. Immunol. Methods. 1981, 41, 155; Leonardi et al., Activated kinase screening identifies the IKBKE oncogene as a positive regulator of autophagy. Autophagy, 2019, 15, 312). […]

[2] = Kinetic solubility (turbidimetry); type: physicochemical; conditions: for Absorbance at 620nm: PBS pH 7.4, 37°C, 2 h
Method: Kinetic solubility was assessed in phosphate buffered saline at pH 7.4 according to the turbidimetry method. Turbidity (precipitation) was measured by absorbance at 620 nm following incubation at 37°C for 2 h. Stock solution of compounds in DMSO were prepared to produce the desired final range of concentrations, then these were added to the buffer to obtain the final test compound concentrations (1 µM, 3 µM, 10 µM, 30 µM, 100 µM), with a final DMSO concentration 1%). Solubility was estimated from the concentration of tested compound that produced a significant increase in absorbance (≥ 0.003 OD at 620 nm) above vehicle control (1% DMSO in water). Miconazole, Reserpine and Propranolol were used as controls.

SMILES: CCCCc1cn(-c2ccc(-c3nnc(-c4ccccc4C(F)(F)F)o3)cc2)nn1 [Compound 5]
- IC50 [1]: 50 µM
- solubility at 2 h ([2]; 37 °C, aqueous buffer, kinetic from dmso stock, kinetic solubility, PBS pH 7.4, read-out: solubility): > 100 µM
- Absorbance at 620nm ([2]; conc. 1 µM): 0.037
- Absorbance at 620nm ([2]; conc. 3 µM): 0.037
- Absorbance at 620nm ([2]; conc. 10 µM): 0.037
- Absorbance at 620nm ([2]; conc. 30 µM): 0.037
- Absorbance at 620nm ([2]; conc. 100 µM): 0.038
